US20180362485A1, “N-HYDROXYFORMAMIDE COMPOUNDS AND COMPOSITIONS COMPRISING THEM FOR USE AS BMP l, TLL1 AND/OR TLL2 INHIBITORS” (GlaxoSmithKline Intellectual Property (No. 2) Limited, priority 2015, published 2018)
Counter-ions that a name gives are not always drawn.

Tests used:
[1] = system: Generation of Procollagen I C-Terminal Propeptide (PICP); test: Cell-based inhibition assay of generation of procollagen I C-terminal propeptide (PICP), PICP ELISA; settings: Cardiac fibroblast, human cardiac fibroblasts, 24 to 48 hr, read-out: pIC50, PICP cellular inhibition assay (converted)
Experimental: (§1) An adaptation of the collagen deposition assay described by Chen, C. Z. C., et al., British Journal of Pharmacology, 2009, 158, 1196-1209 is used to examine effect of compounds on procollagen I processing and collagen deposition. In the adapted assay, human cardiac fibroblasts are utilized. Processing of procollagen I is determined by a PICP ELISA assay and deposition of mature collagen is determined by immunostaining.
(§2) Human cardiac fibroblasts are cultured and maintained until passage 6 in FGM-3 media (Lonza, #CC-3132) in a 37° C. humidified incubator with 5% CO2. They are then seeded in 96-well black wall, clear bottom plates at 10,000 to 15,000 cells per well in eagle's minimum essential media (EMEM, ATCC #30-2003) containing 10% fetal bovine serum (FBS, Life Technologies #10082147), 1% Glutamax (Life Technologies #35050061) and 1% Penicillin and Streptomycin (Life Technologies #15070063). These cultures are placed in 37° C. incubator. The next day, media is removed by aspiration and cells are rinsed with phosphate buffered saline. Crowding media (also called ficoll media) is prepared by adding 112.5 mg/ml of ficoll70 and 75 mg/ml ficoll400 (GE healthcare #17-0310-10 and 17-0300-10, respectively), 100 μM ascorbic acid, 1% Glutamax and 1% Penicillin and Streptomycin to EMEM media. Test compounds (dissolved in DMSO) are diluted into crowding media and then added to the cells. Final concentration of DMSO in crowding media is less than 0.3%. Cells are treated for 24 to 48 hr in a 37° C. incubator. At the end of the treatment period, cell media are collected. The level of PICP in the media is determined by a PICP ELISA assay (Quidel #8003) following the manufacturer's protocol. Potencies of test compounds are calculated by fitting PICP levels, relative to untreated controls, to log (inhibitor) vs. response equation using Graphpad Prism software 5.0 and expressed as pIC50.

[2] = system: deposition of mature collagen; test: Cell-based inhibition assay of mature collagen deposition (immunostaining); settings: Cardiac fibroblast; human cardiac fibroblasts, immunostaining of mature collagen I; read-out: pIC50, mature collagen cellular inhibition assay (converted)
Experimental: as §1, §2
For some compounds, deposition of mature collagen is measured by immunostaining in addition to PICP levels. At the end of the treatment period, cells on culture plate are fixed with 100% methanol (prechilled to −20° C.) for 10 min. Then the cells are immunostained with mouse anti-mature collagen I antibody (1:500 dilution, Sigma#C2456), anti-mouse secondary antibody Alexa647 (1:500 dilution, Invitrogen#A21236) and Hoechst (for nuclei, 2 μg/ml, Invitrogen#H3596). Fluorescent image acquisition is done using the Operetta High Content Imaging system (Perkin Elmer). For each image field, the intensity of mature collagen staining is normalized with the number of nuclei. Normalized collagen levels are used to calculate the potency of test compounds with Graphpad Prism software, as described above.

Compound	IC50 [1]	IC50 [2]
CCCCC[C@@H](C(=O)NCNC(=O)c1ccc(-c2ccc(C(=O)OCC)cc2)o1)[C@@H](CC)N(O)C=O [Example 100, ethyl 4-(5-((((R)-2-((R)-1-(N-hydroxyformamido)propyl)heptanamido)methyl)carbamoyl)furan-2-yl)benzoate]	< 398 nM	
CCCCC[C@@H](C(=O)NCNC(=O)c1ccc(-c2ccc(C(=O)OCCCC)cc2)o1)[C@@H](CC)N(O)C=O [Example 101, butyl 4-(5-((((R)-2-((R)-1-(N-hydroxyformamido)propyl)heptanamido)methyl)carbamoyl)furan-2-yl)benzoate]	< 398 nM	
CCCCC[C@@H](C(=O)NCNC(=O)c1ccc(-c2ccc(C(=O)OCCN(C)C)cc2)o1)[C@@H](CC)N(O)C=O [Example 104, 2-(dimethylamino) ethyl 4-(5-((((R)-2-((R)-1-(N-hydroxyformamido)propyl)heptanamido)methyl)carbamoyl)furan-2-yl)benzoate]	< 398 nM	
CCCCC[C@@H](C(=O)NCNC(=O)c1ccc(-c2ccc(C(=O)N[C@@H](CC(=O)OC(C)(C)C)C(=O)OC(C)(C)C)c(OCC)c2)o1)[C@@H](CC)N(O)C=O [Example 112, (S)-di-tert-butyl 2-(2-ethoxy-4-(5-((((R)-2-((R)-1-(N-hydroxyformamido)propyl)heptanamido)methyl)carbamoyl)furan-2-yl)benzamido) succinate]	< 398 nM	
CCCCC[C@@H](C(=O)NCNC(=O)c1ccc(-c2ccc(C(=O)N[C@@H](CC(=O)O)C(=O)OCC)c(OCC)c2)o1)[C@@H](CC)N(O)C=O [Example 113, (S)-4-ethoxy-3-(2-ethoxy-4-(5-((((R)-2-((R)-1-(N-hydroxyformamido)propyl)heptanamido)methyl)carbamoyl)furan-2-yl)benzamido)-4-oxobutanoic acid]	< 398 nM	
CCCCC[C@@H](C(=O)NCNC(=O)c1ccc(-c2ccc(C(=O)N[C@@H](CC(=O)O)C(=O)OC(C)(C)C)c(OCC)c2)o1)[C@@H](CC)N(O)C=O [Example 114, (S)-4-(tert-butoxy)-3-(2-ethoxy-4-(5-((((R)-2-((R)-1-(N-hydroxyformamido)propyl)heptanamido)methyl)carbamoyl)furan-2-yl)benzamido)-4-oxobutanoic acid]	< 398 nM	
CCCCC[C@@H](C(=O)NCNC(=O)c1ccc(-c2cc(OCC)cc(P(=O)(OCOC(C)=O)OCOC(C)=O)c2)o1)[C@@H](CC)N(O)C=O [Example 115, (((3-ethoxy-5-(5-((((R)-2-((R)-1-(N-hydroxyformamido)propyl)heptanamido)methyl)carbamoyl)furan-2-yl)phenyl)phosphoryl)bis(oxy))bis (methylene) diacetate]	< 398 nM	
CCCCC[C@@H](C(=O)NCNC(=O)c1ccc(-c2ccc(C(=O)N[C@@H](CC(=O)O)C(=O)OCOC(=O)c3ccccc3)c(OCC)c2)o1)[C@@H](CC)N(O)C=O [Example 116, (S)-4-((benzoyloxy)methoxy)-3-(2-ethoxy-4-(5-((((R)-2-((R)-1-(N-hydroxyformamido)propyl)heptanamido)methyl)carbamoyl)furan-2-yl)benzamido)-4-oxobutanoic acid]	< 398 nM	
CCCCC[C@@H](C(=O)NCNC(=O)c1ccc(-c2ccc(C(=O)N[C@@H](CC(=O)OC)C(=O)OC)c(OCC(=O)OC)c2)o1)[C@@H](CC)N(O)C=O [Example 142, (S)-dimethyl 2-(4-(5-((((R)-2-((R)-1-(N-hydroxyformamido)propyl)heptanamido)methyl)carbamoyl)furan-2-yl)-2-(2-methoxy-2-oxoethoxy)benzamido)succinate]	< 398 nM	
CCCCC[C@@H](C(=O)NCNC(=O)c1ccc(-c2ccc(C(=O)N[C@@H](CC(=O)OCC)C(=O)OCC)c(OCC)c2)o1)[C@@H](CC)N(O)C=O [Example 143, (S)-diethyl 2-(2-ethoxy-4-(5-((((R)-2-((R)-1-(N-hydroxyformamido)propyl)heptanamido)methyl)carbamoyl)furan-2-yl)benzamido)succinate]	< 398 nM	
CCCCC[C@@H](C(=O)NCNC(=O)c1ccc(-c2cc(OCC)cc(P(=O)(O)OCOC(=O)OC(C)C)c2)o1)[C@@H](CC)N(O)C=O [Example 302, (((3-ethoxy-5-(5-((((R)-2-((R)-1-(N-hydroxyformamido)propyl)heptanamido)methyl)carbamoyl)furan-2-yl)phenyl) (hydroxy)phosphoryl)oxy)methyl isopropyl carbonate]	< 398 nM	
CCCCC[C@@H](C(=O)NCNC(=O)c1ccc(-c2cc(OCC)cc(P(=O)(O)Oc3ccccc3)c2)o1)[C@@H](CC)N(O)C=O [Example 400, Phenyl Hydrogen (3-ethoxy-5-(5-((((R)-2-((R)-1-(N-hydroxyformamido)propyl)heptanamido)methyl)carbamoyl)furan-2-yl)phenyl)phosphonate, Ammonia Salt]	< 398 nM	
CCCCC[C@@H](C(=O)NCNC(=O)c1ccc(-c2ccc(C(=O)N[C@@H](CC(=O)O)C(=O)O)c(OCC)c2)o1)[C@@H](CC)N(O)C=O [WO2015/104684 Example 74, (S)-2-(2-ethoxy-4-(5-((((R)-2-((R)-1-(N-hydroxyformamido)propyl)heptanamido)methyl)carbamoyl)furan-2-yl)benzamido)succinic acid]		< 1000 nM
CCCCC[C@@H](C(=O)NCNC(=O)c1ccc(-c2cc(OCC)cc(P(=O)(O)O)c2)o1)[C@@H](CC)N(O)C=O [WO2015/104684 Example 96, (3-ethoxy-5-(5-((((R)-2-((R)-1-(N-hydroxyformamido)propyl)heptanamido)methyl)carbamoyl)furan-2-yl)phenyl)phosphonic acid]		< 1000 nM
CCCCC[C@@H](C(=O)NCNC(=O)c1ccc(-c2ccc(C(=O)N[C@@H](CC(=O)O)C(=O)O)c(OCC(=O)O)c2)o1)[C@@H](CC)N(O)C=O [WO2015/104684 Example 126, (S)-2-(2-(carboxymethoxy)-4-(5-((((R)-2-((R)-1-(N-hydroxyformamido)propyl)heptanamido)methyl)carbamoyl)furan-2-yl)benzamido)succinic acid]		< 1000 nM
CCCCC[C@@H](C(=O)NCNC(=O)c1ccc(-c2ccc(C(=O)NCP(=O)(O)O)c(OCC)c2)o1)[C@@H](CC)N(O)C=O [WO2015/104684 Example 139, ((2-ethoxy-4-(5-((((R)-2-((R)-1-(N-hydroxyformamido)propyl)heptanamido)methyl)carbamoyl)furan-2-yl)benzamido)methyl)phosphonic acid]		< 1000 nM
